Experiments:
[1] = 101 kPa, Liquid; for speed of sound: Linear variable-path acoustic interferometer
[2] = refractive index (Na D-line) (dimensionless); details: 101.33 kPa, Liquid
[3] = refractive index (Na D-line) (dimensionless); xn = mol fraction of the nth substance listed; details: 101 kPa, Liquid
[4] = xn = mol fraction of the nth substance listed; details: 101 kPa, Liquid; for speed of sound: Linear variable-path acoustic interferometer

CC(C)CO [2-methyl-1-propanol]
Details	mass density, 298.15 K [kg/m3]	mass density, 303.15 K [kg/m3]	mass density, 308.15 K [kg/m3]	refractive index, 298.15 K	refractive index, 303.15 K	refractive index, 308.15 K	speed of sound, 298.15 K [m/s]	viscosity, 298.15 K [mPa·s]	viscosity, 303.15 K [mPa·s]	viscosity, 308.15 K [mPa·s]
[1]	809.31	805.23	801.11	–	–	–	1170	3.097	2.635	2.249
[2]	–	–	–	1.3932	1.3917	1.3896	–	–	–	–

CC(C)CCO [3-methylbutan-1-ol]
Details	mass density, 298.15 K [kg/m3]	mass density, 303.15 K [kg/m3]	mass density, 308.15 K [kg/m3]	refractive index, 298.15 K	refractive index, 303.15 K	refractive index, 308.15 K	speed of sound, 298.15 K [m/s]	viscosity, 298.15 K [mPa·s]	viscosity, 303.15 K [mPa·s]	viscosity, 308.15 K [mPa·s]
[1]	820.17	816.28	812.34	–	–	–	1259	2.779	2.258	1.844
[2]	–	–	–	1.4056	1.4034	1.4013	–	–	–	–

CCCCO [butan-1-ol]
Details	mass density, 298.15 K [kg/m3]	mass density, 303.15 K [kg/m3]	mass density, 308.15 K [kg/m3]	refractive index, 298.15 K	refractive index, 303.15 K	refractive index, 308.15 K	speed of sound, 298.15 K [m/s]	viscosity, 298.15 K [mPa·s]	viscosity, 303.15 K [mPa·s]	viscosity, 308.15 K [mPa·s]
[1]	808.49	804.6	800.67	–	–	–	1268	2.587	2.254	1.988
[2]	–	–	–	1.3983	1.3959	1.394	–	–	–	–

CCO [ethanol]
Details	mass density, 298.15 K [kg/m3]	mass density, 303.15 K [kg/m3]	mass density, 308.15 K [kg/m3]	refractive index, 298.15 K	refractive index, 303.15 K	refractive index, 308.15 K	speed of sound, 298.15 K [m/s]	viscosity, 298.15 K [mPa·s]	viscosity, 303.15 K [mPa·s]	viscosity, 308.15 K [mPa·s]
[1]	785.66	781.34	776.99	–	–	–	1161	1.083	0.985	0.8954
[2]	–	–	–	1.3608	1.3589	1.3563	–	–	–	–

CC1CCCCC1 [methylcyclohexane]
Details	mass density, 298.15 K [kg/m3]	mass density, 303.15 K [kg/m3]	mass density, 308.15 K [kg/m3]	refractive index, 298.15 K	refractive index, 303.15 K	refractive index, 308.15 K	speed of sound, 298.15 K [m/s]	viscosity, 298.15 K [mPa·s]	viscosity, 303.15 K [mPa·s]	viscosity, 308.15 K [mPa·s]
[1]	764.99	760.66	756.3	–	–	–	1217	0.6757	0.631	0.5902
[2]	–	–	–	1.4217	1.4192	1.4163	–	–	–	–

CC1CCCCC1 [methylcyclohexane] + CCCO
Details	mass density, 298.15 K [kg/m3]	mass density, 303.15 K [kg/m3]	mass density, 308.15 K [kg/m3]	refractive index, 298.15 K	refractive index, 303.15 K	refractive index, 308.15 K	speed of sound, 298.15 K [m/s]	viscosity, 298.15 K [mPa·s]	viscosity, 303.15 K [mPa·s]	viscosity, 308.15 K [mPa·s]
[3], x1 = 0.1008	–	–	–	1.3888	1.3865	1.3841	–	–	–	–
[3], x1 = 0.2027	–	–	–	1.3934	1.391	1.3886	–	–	–	–
[3], x1 = 0.3047	–	–	–	1.3979	1.3955	1.3932	–	–	–	–
[3], x1 = 0.4039	–	–	–	1.4016	1.3994	1.3971	–	–	–	–
[3], x1 = 0.5031	–	–	–	1.4053	1.4032	1.4011	–	–	–	–
[3], x1 = 0.6008	–	–	–	1.409	1.4066	1.4043	–	–	–	–
[3], x1 = 0.6985	–	–	–	1.4127	1.4101	1.4075	–	–	–	–
[3], x1 = 0.799	–	–	–	1.4159	1.4133	1.4106	–	–	–	–
[3], x1 = 0.8995	–	–	–	1.4191	1.4164	1.4137	–	–	–	–
[3], x1 = 1	–	–	–	1.4217	1.4192	1.4163	–	–	–	–
[4], x1 = 0.1008	801.22	796.96	792.71	–	–	–	1207	1.729	1.536	1.343
[4], x1 = 0.2027	794.2	789.87	785.57	–	–	–	1208	1.471	1.317	1.162
[4], x1 = 0.3047	788.08	783.7	779.32	–	–	–	1209	1.26	1.136	1.013
[4], x1 = 0.4039	782.97	778.55	774.13	–	–	–	1210	1.102	0.9975	0.8926
[4], x1 = 0.5031	778.56	774.16	769.74	–	–	–	1212	0.9688	0.8863	0.8037
[4], x1 = 0.6008	774.91	770.45	765.97	–	–	–	1213	0.8839	0.813	0.742
[4], x1 = 0.6985	771.66	767.2	762.69	–	–	–	1214	0.7998	0.7403	0.6808
[4], x1 = 0.799	768.83	764.32	759.8	–	–	–	1215	0.7511	0.6984	0.6457
[4], x1 = 0.8995	766.39	761.95	757.5	–	–	–	1216	0.7028	0.6568	0.6107
[4], x1 = 1	764.99	760.66	756.3	–	–	–	1217	0.6757	0.631	0.5902

CC1CCCCC1 [methylcyclohexane] + CCO
Details	mass density, 298.15 K [kg/m3]	mass density, 303.15 K [kg/m3]	mass density, 308.15 K [kg/m3]	refractive index, 298.15 K	refractive index, 303.15 K	refractive index, 308.15 K	speed of sound, 298.15 K [m/s]	viscosity, 298.15 K [mPa·s]	viscosity, 303.15 K [mPa·s]	viscosity, 308.15 K [mPa·s]
[3], x1 = 0.1023	–	–	–	1.371	1.3686	1.3662	–	–	–	–
[3], x1 = 0.2031	–	–	–	1.3796	1.3764	1.3744	–	–	–	–
[3], x1 = 0.304	–	–	–	1.3881	1.3853	1.3825	–	–	–	–
[3], x1 = 0.405	–	–	–	1.3949	1.3921	1.3893	–	–	–	–
[3], x1 = 0.5061	–	–	–	1.4017	1.3989	1.3961	–	–	–	–
[3], x1 = 0.6029	–	–	–	1.4068	1.4038	1.4008	–	–	–	–
[3], x1 = 0.6998	–	–	–	1.412	1.4087	1.4054	–	–	–	–
[3], x1 = 0.8016	–	–	–	1.417	1.4135	1.41	–	–	–	–
[3], x1 = 0.9034	–	–	–	1.4192	1.4169	1.4146	–	–	–	–
[3], x1 = 1	–	–	–	1.4217	1.4192	1.4163	–	–	–	–
[4], x1 = 0.1023	779.57	775.21	770.8	–	–	–	1167	0.9923	0.9068	0.8212
[4], x1 = 0.2031	775.92	771.51	767.07	–	–	–	1172	0.9225	0.8458	0.7691
[4], x1 = 0.304	772.55	768.07	763.6	–	–	–	1178	0.8558	0.788	0.7202
[4], x1 = 0.405	770.25	765.74	761.26	–	–	–	1183	0.808	0.7464	0.6848
[4], x1 = 0.5061	768.4	763.87	759.36	–	–	–	1189	0.7632	0.7079	0.6525
[4], x1 = 0.6029	767.13	762.62	758.09	–	–	–	1195	0.7293	0.677	0.6248
[4], x1 = 0.6998	766.01	761.51	756.97	–	–	–	1200	0.6984	0.6477	0.5971
[4], x1 = 0.8016	765.34	760.87	756.37	–	–	–	1206	0.6857	0.6392	0.5927
[4], x1 = 0.9034	764.79	760.27	755.77	–	–	–	1212	0.6762	0.6323	0.5884
[4], x1 = 1	764.99	760.66	756.3	–	–	–	1217	0.6757	0.631	0.5902

CCCO [propan-1-ol]
Details	mass density, 298.15 K [kg/m3]	mass density, 303.15 K [kg/m3]	mass density, 308.15 K [kg/m3]	refractive index, 298.15 K	refractive index, 303.15 K	refractive index, 308.15 K	speed of sound, 298.15 K [m/s]	viscosity, 298.15 K [mPa·s]	viscosity, 303.15 K [mPa·s]	viscosity, 308.15 K [mPa·s]
[1]	809.65	805.5	801.32	–	–	–	1206	2.077	1.809	1.595
[2]	–	–	–	1.384	1.3819	1.38	–	–	–	–

CCCO [propan-1-ol] + CC1CCCCC1
x2 = 0
Details	mass density, 298.15 K [kg/m3]	mass density, 303.15 K [kg/m3]	mass density, 308.15 K [kg/m3]	refractive index, 298.15 K	refractive index, 303.15 K	refractive index, 308.15 K	speed of sound, 298.15 K [m/s]	viscosity, 298.15 K [mPa·s]	viscosity, 303.15 K [mPa·s]	viscosity, 308.15 K [mPa·s]
[3]	–	–	–	1.384	1.3819	1.38	–	–	–	–
[4]	809.65	805.5	801.32	–	–	–	1206	2.077	1.809	1.595

CC(C)O [propan-2-ol]
Details	mass density, 298.15 K [kg/m3]	mass density, 303.15 K [kg/m3]	mass density, 308.15 K [kg/m3]	refractive index, 298.15 K	refractive index, 303.15 K	refractive index, 308.15 K	speed of sound, 298.15 K [m/s]	viscosity, 298.15 K [mPa·s]	viscosity, 303.15 K [mPa·s]	viscosity, 308.15 K [mPa·s]
[1]	781.05	776.79	772.43	–	–	–	1144	2.076	1.786	1.532
[2]	–	–	–	1.3765	1.3741	1.3716	–	–	–	–

CC(C)O [propan-2-ol] + CC1CCCCC1
x2 = 0
Details	mass density, 298.15 K [kg/m3]	mass density, 303.15 K [kg/m3]	mass density, 308.15 K [kg/m3]	refractive index, 298.15 K	refractive index, 303.15 K	refractive index, 308.15 K	speed of sound, 298.15 K [m/s]	viscosity, 298.15 K [mPa·s]	viscosity, 303.15 K [mPa·s]	viscosity, 308.15 K [mPa·s]
[3]	–	–	–	1.3765	1.3741	1.3716	–	–	–	–
[4]	781.05	776.79	772.43	–	–	–	1144	2.076	1.786	1.532
